Source: patent US10703757B2, “Compounds and methods for CDK8 modulation and indications therefor” (Plexxikon Inc., priority 2016, dated 2020)

Columns and labels:
[1] = tested on: CDK8 (phosphorylation of STAT1 at serine 727 in A549 cells); experiment: Cell based Phospho-STAT1 assay (IFNγ-stimulated A549 cells, AlphaLISA); conditions: Homo sapiens, A549, A549 cells, phospho-STAT1 after IFNγ stimulation
Summary of the method: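 A549 cells given serial compound dilutions for 1 h at 37 °C, then stimulated with IFNγ at 10 ng/mL final for 30 min. Lysate STAT1 Ser727 phosphorylation measured by AlphaLISA; % inhibition vs stimulated/unstimulated DMSO controls, IC50 by nonlinear regression.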

[2] = tested on: CDK8 (TCF/LEF luciferase reporter in HCT116 cells); experiment: Cell based TCF/LEF reporter assay (HCT116+TCF/LEF luciferase); conditions: Homo sapiens, HCT-116, 24 h
Summary of the method: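 HCT116 cells stably carrying a TCF/LEF-luciferase reporter (endogenous mutant β-catenin), seeded overnight, then exposed to serial compound dilutions for 24 h at 37 °C. Luminescence normalized to CellTiter-Fluor viability signal. % inhibition relative to DMSO and 10 uM CCT251545 controls, with IC50 from nonlinear regression.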

N#CC1CCN(c2cccn3ncc(-c4ccc(-c5cnn(C(F)F)c5)cc4)c23)CC1 [Compound P-0415, 1-(3-(4-(1-(difluoromethyl)-1H-pyrazol-4-yl)phenyl)pyrazolo[1,5-a]pyridin-4-yl)piperidine-4-carbonitrile]
IC50 [1]: 0.0001 to 0.1 µM
IC50 [2]: 0.0001 to 0.1 µM

Cn1cc(-c2ccc(-c3cnc4cccc(C5=CCC(C(N)=O)CC5)n34)cc2)cn1 (stereo not shown) [Compound P-0416, 4-(3-(4-(1-methyl-1H-pyrazol-4-yl)phenyl)imidazo[1,2-a]pyridin-5-yl)cyclohex-3-ene-1-carboxamide]
IC50 [1]: 0.1 to 1 µM
IC50 [2]: 0.1 to 1 µM

Cn1cc(-c2ccc(-c3cnc4[nH]ccc4c3N3CCC(C#N)CC3)cc2)cn1 [Compound P-0421, 1-(5-(4-(1-methyl-1H-pyrazol-4-yl)phenyl)-1H-pyrrolo[2,3-b]pyridin-4-yl)piperidine-4-carbonitrile]
IC50 [1]: 0.0001 to 0.1 µM
IC50 [2]: 0.0001 to 0.1 µM

Cn1cc(-c2ccc(-c3cnn4cccc(C#CC(C)(C)O)c34)cc2)cn1 [Compound P-0429, 2-methyl-4-[3-[4-(1-methylpyrazol-4-yl)phenyl]pyrazolo[1,5-a]pyridin-4-yl]but-3-yn-2-ol]
IC50 [1]: 0.0001 to 0.1 µM
IC50 [2]: 0.0001 to 0.1 µM

Cn1cc(C#Cc2cnc3cccc(N4CCC5(CC4)C(=O)Nc4ccccc45)n23)cn1 [Compound P-0437, 1′-(3-((1-methyl-1H-pyrazol-4-yl)ethynyl)imidazo[1,2-a]pyridin-5-yl)spiro[indoline-3,4′-piperidin]-2-one]
IC50 [1]: 0.0001 to 0.1 µM
IC50 [2]: 0.0001 to 0.1 µM

N#CC1CC=C(c2cccc3ncc(-c4ccc(-c5cnn(C(F)F)c5)cc4)n23)CC1 (stereo not shown) [Compound P-0438, 4-(3-(4-(1-(difluoromethyl)-1H-pyrazol-4-yl)phenyl)imidazo[1,2-a]pyridin-5-yl)cyclohex-3-ene-1-carbonitrile]
IC50 [1]: 0.0001 to 0.1 µM
IC50 [2]: 0.0001 to 0.1 µM

Cn1cc(-c2ccc(-c3cnn4cccc(C5=CCC(C(N)=O)CC5)c34)cc2)cn1 (stereo not shown) [Compound P-0443, 4-(3-(4-(1-methyl-1H-pyrazol-4-yl)phenyl)pyrazolo[1,5-a]pyridin-4-yl)cyclohex-3-ene-1-carboxamide]
IC50 [1]: 0.0001 to 0.1 µM
IC50 [2]: 0.0001 to 0.1 µM

Cn1cc(-c2ccc(-c3cnn4cccc(C5=CCC(C(=O)O)CC5)c34)cc2)cn1 (stereo not shown) [Compound P-0444, 4-(3-(4-(1-methyl-1H-pyrazol-4-yl)phenyl)pyrazolo[1,5-a]pyridin-4-yl)cyclohex-3-ene-1-carboxylic acid]
IC50 [1]: 0.1 to 1 µM
IC50 [2]: 0.1 to 1 µM

Cn1cc(-c2ccc(-c3cnc4cccc(C5=CCC(C#N)CC5)n34)cc2)cn1 (stereo not shown) [Compound P-0445, 4-(3-(4-(1-methyl-1H-pyrazol-4-yl)phenyl)imidazo[1,2-a]pyridin-5-yl)cyclohex-3-ene-1-carbonitrile]
IC50 [1]: 0.0001 to 0.1 µM
IC50 [2]: 0.0001 to 0.1 µM

Cn1cc(-c2ccc(-c3cnn4cccc(C5=CCC(C#N)CC5)c34)cc2)cn1 (stereo not shown) [Compound P-0452, 4-(3-(4-(1-methyl-1H-pyrazol-4-yl)phenyl)pyrazolo[1,5-a]pyridin-4-yl)cyclohex-3-ene-1-carbonitrile]
IC50 [1]: 0.0001 to 0.1 µM
IC50 [2]: 0.0001 to 0.1 µM

Cn1cc(-c2ccc(-c3cnc4cccc(N5CCC6(CC5)C(=O)Nc5ccccc56)n34)cc2)cn1 [Compound P-0454, 1′-(3-(4-(1-methyl-1H-pyrazol-4-yl)phenyl)imidazo[1,2-a]pyridin-5-yl)spiro[indoline-3,4′-piperidin]-2-one]
IC50 [1]: 0.0001 to 0.1 µM
IC50 [2]: 0.0001 to 0.1 µM

CC(C)(C#Cc1nccn2ncc(-c3ccc(-c4cnn(CCCC#N)c4)cc3)c12)C(N)=O [Compound P-0456, 4-(3-(4-(1-(3-cyanopropyl)-1H-pyrazol-4-yl)phenyl)pyrazolo[1,5-a]pyrazin-4-yl)-2,2-dimethylbut-3-ynamide]
IC50 [1]: 0.0001 to 0.1 µM
IC50 [2]: 0.0001 to 0.1 µM

COc1ccc(-c2cnn3ccnc(C4CCC(C#N)CC4)c23)cc1C (stereo not shown) [Compound P-0457, (1s,4s)-4-(3-(4-methoxy-3-methylphenyl)pyrazolo[1,5-a]pyrazin-4-yl)cyclohexane-1-carbonitrile]
IC50 [1]: 0.0001 to 0.1 µM
IC50 [2]: 0.0001 to 0.1 µM

CC(C)(O)Cn1cc(-c2ccc(-c3cnn4ccnc(C5CCC(C#N)CC5)c34)nc2)cn1 (stereo not shown) [Compound P-0458, (1s,4s)-4-(3-(5-(1-(2-hydroxy-2-methylpropyl)-1H-pyrazol-4-yl)pyridin-2-yl)pyrazolo[1,5-a]pyrazin-4-yl)cyclohexane-1-carbonitrile]
IC50 [1]: 0.0001 to 0.1 µM
IC50 [2]: 0.0001 to 0.1 µM

CC(C)(O)Cn1cc(-c2ccc(-c3cnn4ccnc(C5CCC(C#N)CC5)c34)cn2)cn1 (stereo not shown) [Compound P-0459, (1s,4s)-4-(3-(6-(1-(2-hydroxy-2-methylpropyl)-1H-pyrazol-4-yl)pyridin-3-yl)pyrazolo[1,5-a]pyrazin-4-yl)cyclohexane-1-carbonitrile]
IC50 [1]: 0.0001 to 0.1 µM
IC50 [2]: 0.0001 to 0.1 µM

CC(C)(C#Cc1cccn2ncc(-c3ccc(-c4cnn(CS(C)(=O)=O)c4)cc3)c12)C(N)=O [Compound P-0460, 2,2-dimethyl-4-(3-(4-(1-((methylsulfonyl)methyl)-1H-pyrazol-4-yl)phenyl)pyrazolo[1,5-a]pyridin-4-yl)but-3-ynamide]
IC50 [1]: 0.0001 to 0.1 µM
IC50 [2]: 0.0001 to 0.1 µM

CC(C)(C#Cc1cccn2ncc(-c3ccc(-c4cnn(CCCC#N)c4)cc3)c12)C(N)=O [Compound P-0461, 4-(3-(4-(1-(3-cyanopropyl)-1H-pyrazol-4-yl)phenyl)pyrazolo[1,5-a]pyridin-4-yl)-2,2-dimethylbut-3-ynamide]
IC50 [1]: 0.0001 to 0.1 µM
IC50 [2]: 0.0001 to 0.1 µM

CC(C)(C#Cc1cccn2ncc(-c3ccc(-c4cnn(CC(N)=O)c4)cc3)c12)C(N)=O [Compound P-0462, 4-(3-(4-(1-(2-amino-2-oxoethyl)-1H-pyrazol-4-yl)phenyl)pyrazolo[1,5-a]pyridin-4-yl)-2,2-dimethylbut-3-ynamide]
IC50 [1]: 0.0001 to 0.1 µM
IC50 [2]: 0.0001 to 0.1 µM

CC(C)(C#Cc1cccn2ncc(-c3ccc(-c4cnn(CC5CC5)c4)cc3)c12)C(N)=O [Compound P-0463, 4-(3-(4-(1-(cyclopropylmethyl)-1H-pyrazol-4-yl)phenyl)pyrazolo[1,5-a]pyridin-4-yl)-2,2-dimethylbut-3-ynamide]
IC50 [1]: 0.0001 to 0.1 µM
IC50 [2]: 0.0001 to 0.1 µM

CC(C)(C#Cc1cccn2ncc(-c3ccc(-c4cnn(CCS(C)(=O)=O)c4)cc3)c12)C(N)=O [Compound P-0464, 2,2-dimethyl-4-(3-(4-(1-(2-(methylsulfonyl)ethyl)-1H-pyrazol-4-yl)phenyl)pyrazolo[1,5-a]pyridin-4-yl)but-3-ynamide]
IC50 [1]: 0.0001 to 0.1 µM
IC50 [2]: 0.0001 to 0.1 µM

CC(C)(C#Cc1cccn2ncc(-c3ccc(-c4cnn(CCN5CCCC5)c4)cc3)c12)C(N)=O [Compound P-0465, 2,2-dimethyl-4-(3-(4-(1-(2-(pyrrolidin-1-yl)ethyl)-1H-pyrazol-4-yl)phenyl)pyrazolo[1,5-a]pyridin-4-yl)but-3-ynamide]
IC50 [1]: 0.0001 to 0.1 µM
IC50 [2]: 0.0001 to 0.1 µM

CC(C)(C#Cc1cccn2ncc(-c3ccc(-c4cnn(CCF)c4)cc3)c12)C(N)=O [Compound P-0466, 4-(3-(4-(1-(2-fluoroethyl)-1H-pyrazol-4-yl)phenyl)pyrazolo[1,5-a]pyridin-4-yl)-2,2-dimethylbut-3-ynamide]
IC50 [1]: 0.0001 to 0.1 µM
IC50 [2]: 0.0001 to 0.1 µM

CC(C)(C#Cc1cccn2ncc(-c3ccc(-c4cnn(CC(F)F)c4)cc3)c12)C(N)=O [Compound P-0467, 4-(3-(4-(1-(2,2-difluoroethyl)-1H-pyrazol-4-yl)phenyl)pyrazolo[1,5-a]pyridin-4-yl)-2,2-dimethylbut-3-ynamide]
IC50 [1]: 0.0001 to 0.1 µM
IC50 [2]: 0.0001 to 0.1 µM

CC(C)(C#Cc1cccn2ncc(-c3ccc(-c4cnn(CC(F)(F)F)c4)cc3)c12)C(N)=O [Compound P-0468, 2,2-dimethyl-4-(3-(4-(1-(2,2,2-trifluoroethyl)-1H-pyrazol-4-yl)phenyl)pyrazolo[1,5-a]pyridin-4-yl)but-3-ynamide]
IC50 [1]: 0.0001 to 0.1 µM
IC50 [2]: 0.0001 to 0.1 µM

COCCn1cc(-c2ccc(-c3cnn4cccc(C#CC(C)(C)C(N)=O)c34)cc2)cn1 [Compound P-0469, 4-(3-(4-(1-(2-methoxyethyl)-1H-pyrazol-4-yl)phenyl)pyrazolo[1,5-a]pyridin-4-yl)-2,2-dimethylbut-3-ynamide]
IC50 [1]: 0.0001 to 0.1 µM
IC50 [2]: 0.0001 to 0.1 µM

CC(C)(C#Cc1cccn2ncc(-c3ccc(-c4cnn(CC5COC5)c4)cc3)c12)C(N)=O [Compound P-0470, 2,2-dimethyl-4-(3-(4-(1-(oxetan-3-ylmethyl)-1H-pyrazol-4-yl)phenyl)pyrazolo[1,5-a]pyridin-4-yl)but-3-ynamid]
IC50 [1]: 0.0001 to 0.1 µM
IC50 [2]: 0.0001 to 0.1 µM
